Experiments:
Type in all cases: physicochemical
[1] = Stability studies with competitive slurries of the two hydrates; conditions: ambient conditions
Protocol: Procedure: Saturated solutions of the supplied MH 1 (J08343) were prepared in different solvents/systems (1 ml). The saturated solutions were then filtered and used for competitive slurry experiments.
MH1 and MH2 (ca. 15 mg each) were physically mixed before they were treated with the filtered saturated solutions (300 μL). The samples were stirred at 25° C. for 24 h then filtered, air dried and analysed by XRPD.
The same solvents were used as for samples in water activity experiments with additional IPA/heptane mixtures as this is the current crystallisation solvent. This procedure was also followed for IPA/heptane at 5 and 50° C. (3 days slurrying).
Further experiments were designed to increase the diversity of solvents/systems studied while still investigating the effect of water activity on the form obtained. This was with a view to define a solvent list for Phase 3 (Solvent Selection). Further saturated solutions were prepared as described in the procedure section using MH1 as supplied.

[2] = Compression studies
[3] = Gravimetric Vapour Sorption (GVS); conditions: 25° C., 0-90% RH
Protocol: Sorption isotherms were obtained using a SMS DVS Intrinsic moisture sorption analyzer, controlled by DVS Intrinsic Control software. The sample temperature was maintained at 25° C. by the instrument controls. The humidity was controlled by mixing streams of dry and wet nitrogen, with a total flow rate of 200 ml/min. The relative humidity was measured by a calibrated Rotronic probe (dynamic range of 1.0-100% RH), located near the sample. The weight change, (mass relaxation) of the sample as a function of % RH was constantly monitored by a microbalance (accuracy ±0.005 mg).
Typically, 5-30 mg of sample was placed in a tared mesh stainless steel basket under ambient conditions. The sample was loaded and unloaded at 40% RH and 25° C. (typical room conditions). A moisture sorption isotherm was performed as outlined below (2 scans per complete cycle). The standard isotherm was performed at 25° C. at 10% RH intervals over a 0-90% RH range. Typically, a double cycle (4 scans) was carried out. Data analysis was carried out within Microsoft Excel using the DVS Analysis Suite.
The sample was recovered after completion of the isotherm and re-analyzed by XRPD.

[4] = XRPD under vacuum
Protocol: For vacuum experiments the samples were prepared and analysed in an Anton Paar chromed sample holder. The measurement parameters are as per the standard screening data collection method (detailed above), at 25° C. with no vacuum (I2). A vacuum of around 50 mbar was then applied and the sample measured every 5 min until the anhydrate pattern was obtained for three consecutive measurements (to ensure complete dehydration, up to sample I8). The vacuum was then released and the sample analysed every 5 min for 6 measurements (until sample I22). The sample was then reanalyzed by XRPD after 1 h to check for complete rehydration.
MH1 was analysed at 25° C. with no vacuum. A vacuum of around 50 mbar was then applied and the sample measured every 5 min until the anhydrate pattern was obtained for three consecutive measurements (to ensure complete dehydration). The vacuum was then released and the sample analysed every 5 min for 6 measurements before the front of the sample stage was removed.
Procedure: A second batch of MH2 material was prepared using the same procedure. This sample was then analysed by VTXRPD and by XRPD under vacuum.

[5] = Water activity experiments (slurries, XRPD)
Protocol: MH1 (30.0 mg) was weighed into HPLC vials and placed in a vacuum oven to dry over the weekend. All samples were then placed in a desiccator prior to use to ensure dryness. Solvent ([…]) was added and slurries agitated at either 25° C. or 5° C. Further MH1 was added to any solutions formed to return to a slurry. Ethyl acetate and methyl acetate were both dried prior to use. After four days, the samples were analysed by XRPD with minimum exposure to ambient conditions.
Selected samples were also characterised after standing at ambient for 2 days by XRPD, 1H NMR, TGA and DSC.

[6] = 0.5% water/EtOAc, Aw = 0.3, four days
[7] = 0.8% water/MeOAc, Aw = 0.4, four days
[8] = 1% water/EtOAc, Aw = 0.5, four days
[9] = 1.5% water/EtOAc, Aw = 0.6, four days
[10] = 2% water/EtOAc, Aw = 0.7, four days
[11] = 2.7% water/EtOAc, Aw = 0.8, four days
[12] = 7.5% water/MeOAc, Aw = 0.9, four days
[13] = EtOAc, Sieves, slurry four days

- Relative stability of the forms [1]: most stable form at ambient conditions
- Compression studies, form by XRPD [2]: no conversion to the anhydrate
- TGA post vacuum XRPD mass loss [4]: 3.4%
- Time to fully hydrated by XRPD after ambient air admitted ([4]; after vacuum released and front of sample stage taken off): 15 min
- Time under vacuum to conversion to the anhydrate by XRPD ([4]; vacuum of around 50 mbar, 25° C.): 10 min
- Results for 5° C. (form by XRPD) [5, 6]: MH1
- Results for 25° C. (form by XRPD) [5, 6]: MH1
- Results for 5° C. (form by XRPD) [5, 7]: MH1
- Results for 25° C. (form by XRPD) [5, 7]: MH1
- Results for 5° C. (form by XRPD) [5, 8]: New Form
- Results for 25° C. (form by XRPD) [5, 8]: MH1
- Results for 5° C. (form by XRPD) [5, 9]: New Form
- Results for 25° C. (form by XRPD) [5, 9]: MH1
- Results for 5° C. (form by XRPD) [5, 10]: New Form
- Results for 25° C. (form by XRPD) [5, 10]: New Form
- Results for 5° C. (form by XRPD) [5, 11]: New Form
- Results for 25° C. (form by XRPD) [5, 11]: New Form
- Results for 5° C. (form by XRPD) [5, 12]: New Form
- Results for 25° C. (form by XRPD) [5, 12]: New Form
- Results for 5° C. (form by XRPD) [5, 13]: MH1
- Results for 25° C. (form by XRPD) [5, 13]: MH1
SMILES: C[C@@H]1CN(Cc2ncccn2)C[C@H]1c1cn2c(C3CCOCC3)ncc2c(=O)[nH]1 [MH1, 6-[(3S,4S)-4-methyl-1-(pyrimidin-2-ylmethyl)pyrrolidin-3-yl]-3-tetrahydropyran-4-yl-7H-imidazo[1,5-a]pyrazin-8-one]
- GVS Max uptake [3]: Max uptake of 4.7%, no hysteresis, large step

— US12466832B2, “Monohydrate and crystalline forms of 6-[(3S,4S)-4-methyl-1-(pyrimidin-2-ylmethyl)pyrrolidin-3-yl]-3-tetrahydropyran-4-yl-7H-imidazo[1,5-a]pyrazin-8-one” (Cardurion Pharmaceuticals, Inc., priority 2018, dated 2025)
